From article PMC11875561, “Molecular Insights into the Heme‐Binding Potential of Plant NCR247‐Derived Peptides” (Chembiochem, 2025)
Bridge positions count the residues as written; N and C are the ends. Ends that are not written are not given here.

Tests used:
MBP-NCR247_1-4,2-3 [1] = assay: UV/vis spectroscopic titration of preformed MBP (10 uM) plus NCR247_1-4,2-3 (10 uM) with heme (4-45 uM), 30 min incubation, evaluated with a model of two heme molecules per complex.; details: read-out: KD value, two heme molecules binding to the MBP-NCR247_1-4,2-3 complex
Procedure: (§1) Peroxidase-like activity of the heme-peptide complexes.
(§2) 10 μl of the heme-peptide complex (final concentration:
(§3) (100%) and evaluated as the average of triplicate measurements.
(§4) Subsequently, absorbance spectra were recorded
(§5) Similar to the aforementioned approach,
(§6) NCR247 was added and measured spectroscopically.
(§7) Resonance Raman spectroscopy of the heme-peptide complexes.
(§8) -60°C (ANDOR, Ireland, 1024x127 pixels) used for detection.
(§9) were combined in an equimolar ratio.
(§10) The raw Raman spectra were
(§11) visualised using the graphing software OriginPro 2016G Sr2.
(§12) clipping (SNIP) algorithm, and vector normalisation.
(§13) Circular Dichroism (CD) spectroscopy with NCR247-derived peptides.
(§14) All the peptide solutions were prepared
(§15) prediction tool. […] The structure

MBP-NCR247_1-4,2-3 [2] = assay: UV/vis spectroscopic titration of preformed MBP (10 uM) plus NCR247_1-4,2-3 (10 uM) with heme (4-45 uM), 30 min incubation, evaluated near 420 nm with a 1:1 model.; format: binding; details: read-out: KD value, stoichiometry 1:1 (MBP-NCR247_1-4,2-3:heme)
Procedure: as §1, §2, §3, §4, §5, §6, §7, §8, §9, §10, §11, §12, §13, §14, §15

NCR247_reduced [3] = assay: UV/vis difference-spectroscopic titration of peptide (10 or 20 uM) with heme (0.4-40 uM) in 100 mM HEPES pH 7.0 after 30 min incubation at room temperature, one binding site.
Procedure: Heme binding to the NCR247 parent peptide and its analogues was assessed using UV/vis spectroscopy (Table S2) following an earlier established experimental set‐up,[27, 30, 31, 32] with heme (0.4 to 40 μM) titrated to NCR247 peptide (20 μM) in 100 mM HEPES buffer (pH 7.0). […] time, while at an incubation time of 30 min concomitant oxidation of the cysteine residues has taken place as indicated by the fact that a stable complex was formed only in the first minutes and then a change in the spectrum occurred which is due to disulfide bond formation changing the heme‐binding behaviour of the peptide.
Figure 4 Heme‐binding analysis of NCR247 peptides. […] The complex formation was analysed after incubating it for 30 min at room temperature. The change in the spectral behaviour when measured after 1 min and 30 min of complex incubation is noteworthy. The intensity of the bands at λ =364 nm, indicate a change in the peptide and can be attributed to concomitant oxidation of free Cys residues in aqueous buffer systems, making the Soret band at λ =428 nm more prominent, similar to the one observed in case of the oxidized isomers. d, Peroxidase‐like activity assay of heme‐NCR247 complex measured using an oxidative conversion of TMB substrate at 652 nm. […]

NCR247_1-3,2-4 = biological target: T1, NCR247_1-3,2-4; assay: as above
T1 construct: synthetic 24mer, oxidized isomer, disulfides Cys4-Cys15 and Cys10-Cys21
Procedure: (§16) Heme binding to the NCR247 parent peptide and its analogues was assessed using UV/vis spectroscopy (Table S2) following an earlier established experimental set‐up,[27, 30, 31, 32] with heme (0.4 to 40 μM) titrated to NCR247 peptide (20 μM) in 100 mM HEPES buffer (pH 7.0). […] The KD value for this peptide was first determined by adjusting the established protocol[30] to 1 min incubation time, while at an incubation time of 30 min concomitant oxidation of the cysteine residues has taken place as indicated by the fact that a stable complex was formed only in the first minutes and then a change in the spectrum occurred which is due to disulfide bond formation changing the heme‐binding behaviour of the peptide.
(§17) Figure 4 Heme‐binding analysis of NCR247 peptides. UV/vis spectroscopic analysis upon addition of increasing concentrations of heme (0.4–40 μM) to NCR247 oxidized isomers (on the left), in silico docking analysis (in the middle) showing residues involved in heme binding and rRaman spectra of heme‐peptide (1 : 1) complex (on the right). a, NCR247_1–3,2–4. b, NCR247_1–2,3–4. c, NCR247_reduced form, with free Cys residues. The complex formation was analysed after incubating it for 30 min at room temperature. The change in the spectral behaviour when measured after 1 min and 30 min of complex incubation is noteworthy. The intensity of the bands at λ =364 nm, indicate a change in the peptide and can be attributed to concomitant oxidation of free Cys residues in aqueous buffer systems, making the Soret band at λ =428 nm more prominent, similar to the one observed in case of the oxidized isomers. d, Peroxidase‐like activity assay of heme‐NCR247 complex measured using an oxidative conversion of TMB substrate at 652 nm. […]
(§18) Under oxidative reaction conditions, the cysteines were deprotected and folded by formation of the disulfide bridges between the cysteines according to protocols reported earlier.[4,5] […]

NCR247_1-4,2-3 = biological target: T2, NCR247_1-4,2-3; assay: as above
T2 construct: synthetic 24mer, oxidized isomer, disulfides Cys4-Cys21 and Cys10-Cys15
Procedure: as §16, §17, §18

NCR247_1-2,3-4 = biological target: T3, NCR247_1-2,3-4; assay: as above
T3 construct: synthetic 24mer, oxidized isomer, disulfides Cys4-Cys10 and Cys15-Cys21
Procedure: as §16, §17, §18

MBP = biological target: T4, MBP (Escherichia coli, UniProt P0AEX9); assay: UV/vis spectroscopic titration of MBP (10 uM) with heme (4-40 uM) in HEPES pH 7.0 after 30 min incubation, 1:1 model, Soret band near 400 nm.; format: binding; details: read-out: KD value, stoichiometry 1:1 (MBP:heme)
T4 construct: gene malE; commercial (Rockland Inc.)
Procedure: We thus conducted UV/vis measurements[36, 41] by titrating increasing concentrations of heme (4–40 μM) to the protein (10 μM).
(§20) UV/vis titration experiments of peptides and proteins with heme.
(§21) Maltose-binding protein (Rockland Inc. Pennsylvania, USA) (10 µM) was preincubated with heme in different concentrations (4 - 40
(§22) µM) for 30 min in HEPES buffer (pH 7.0) prior to the UV/vis spectroscopic analysis. Subsequently, absorbance spectra were recorded
and analysed analogously to the heme-binding studies with the peptides described above.[2]

NCR247_reduced [4] = assay: UV/vis difference-spectroscopic titration of peptide (10 or 20 uM) with heme (0.4-40 uM) in 100 mM HEPES pH 7.0 after 1 min incubation, evaluated near 428 nm for one binding site.
Procedure: as §16, with “peptide. […]” for “peptide.”
(§19) Heme binding to the NCR247-derived peptides (Fig. 1, Table S1) was investigated by UV/vis spectroscopy, as described earlier.[2,3,7– 9] […] Absorbance spectra were recorded on a Multiskan GO spectrophotometer (ThermoScientific, Dreieich, Germany) in the range of 300 - 600 nm. Difference spectra were generated by subtracting the spectra of heme and peptide alone from the absorbance spectrum of the hemin-peptide complex. Dissociation constants (KD) were determined by using GraphPad Prism 10.0.2 and the earlier established equation from Pîrnău and Bogdan, as described elsewhere.[7,10]

[5] = UV/vis titration of MBP in complex with NCR247_1–4,2–3 with heme; details: peptide versus MBP
Procedure: as §20, §21, §22
and analysed analogously to the heme-binding studies with the peptides described above.[2] Similar to the aforementioned approach,
NCR247 was added and measured spectroscopically. In addition to this, 10 µM NCR247_1-4,2-3 was incubated with increasing

[6] = set-up: method as in earlier work; details: ref 11 (Sankari et al.); cited from earlier work
[7] = UV/vis spectroscopy heme binding to NCR247-derived peptides; details: 30 min incubation; Soret λ ~420 nm (oxidized isomers) or ~428 nm (reduced); n=1; peptide 20 μM, heme 0.4-40 μM, 100 mM HEPES pH 7.0
Procedure: as §16, with “peptide. […]” for “peptide.”
as §19

**Q.** With C=CC1=C(C)c2cc3[nH]c(cc4nc(cc5[nH]c(cc1n2)c(C)c5CCC(=O)O)C(CCC(=O)O)=C4C)c(C)c3C=C.[Fe+3] [heme, Fe(III) protoporphyrin IX (Fe(III)PPIX, hemin)] as the compound, how does the Kd (MBP-NCR247_1-4,2-3 [1]) read?
**A.** 7.6 µM

**Q.** What about the Kd (MBP-NCR247_1-4,2-3 [2]) of the same compound?
**A.** 14.9 µM

**Q.** What about the Kd (NCR247_reduced [3]) of the same compound?
**A.** 2.27 µM

**Q.** What about the Kd (NCR247_1-3,2-4) of the same compound?
**A.** 2.09 µM

**Q.** And the Kd (NCR247_1-4,2-3)?
**A.** 2.8 µM

**Q.** What about the Kd (NCR247_1-2,3-4) of the same compound?
**A.** 2.98 µM

**Q.** What about the Kd (MBP) of the same compound?
**A.** 7.2 µM

**Q.** What about the Kd (NCR247_reduced [4]) of the same compound?
**A.** 1.44 µM

**Q.** With “NCR247_1–4,2–3: RNGCIVDPRCPYQQCRRPLYCRRR, isomer with bridges Cys4‐Cys21 and Cys10‐Cys15 (disulfide 10-15, 4-21)” as the compound, how does the “binding affinity of the peptide compared to the protein (MBP)” value [5] read?
**A.** two‐fold higher

**Q.** With “NSR247: RNGSIVDPRSPYQQSRRPLYSRRR, mutant with all cysteine residues replaced with serine, negative control” as the compound, how does the heme-binding affinity [6] read?
**A.** μM range

**Q.** And the KD heme binding [7]?
**A.** n.b. and completely lost and absence of heme binding
